The source of these data is PubChem BioAssay (NCI).

The GI50 is the concentration that inhibits growth by half. As a reminder, the TGI is the concentration giving total growth inhibition. Low readings indicate greater sensitivity of the cells, high ones lower sensitivity of the cells.

Common to all, as to assay: DTP human tumour cell line panel, 48 h
Experiment [1] relates to NCI/ADR-RES ovarian.
Experiment [2] concerns ACHN renal.
In experiment [3] the test system is UACC-257 melanoma.
Experiment [4] concerns A498 renal.
Experiment [5] has as its system NCI-H522 lung.
Experiment [6] deals with HOP-92 NSCLC.
Experiment [7] relates to SW-620 colon.
The test system of experiment [8] is NCI-H460 lung.
The subject of experiment [9] is KM12 colon.
Experiment [10] concerns 786-0 renal.

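Assay format: 96-well plates, 48-hour exposure. Abbreviation: GI50, concentration required for 50% inhibition of growth. At the TGI there is no net growth.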

With `Nc1nc(Cl)nc2c1ncn2C1OC(CO)C(O)C1F` (stereo unspecified), the GI50 was less than 0.0166 µM in [1]; 0.169 µM in experiment [2]; 4.17 µM in experiment [3]; 0.284 µM in [4]; greater than 68.2 µM in experiment [5]; 0.124 µM in experiment [6]. For the same compound, the GI50 in experiment [7] is 0.839 µM; in experiment [8], 0.462 µM; in experiment [9], 1.8 µM; in experiment [10] it was 0.0876 µM. Also, the TGI in experiment [1] was 4.98 µM; in experiment [2], greater than 21.2 µM; in [3], greater than 100 µM; in experiment [4], 2.55 µM; in experiment [5] it was greater than 100 µM; in experiment [6], greater than 68 µM. The TGI was greater than 100 µM in [7], greater than 100 µM in [8], greater than 100 µM in [9] and 13.6 µM in [10].

Regarding `C=C(C(=O)OC)[C@@H]1CC2OC1C(=O)C(C)CCC/C(C)=C/CC[C@@]2(C)O` (stereo partly specified), the GI50 is 28.8 µM in experiment [1]; 18.6 µM in [2]; 23.3 µM in experiment [3]; 37.2 µM in experiment [4]; 19.1 µM in [5]; 23.8 µM in experiment [6]. Besides, the GI50 was 15 µM in [7], 50.5 µM in experiment [8], 23.8 µM in [9] and 15.2 µM in [10]. In addition, the TGI in experiment [1] turned out to be 86.4 µM; in experiment [2] it was 42.6 µM; in experiment [3] it was 76.3 µM; in experiment [4], 96.8 µM; in experiment [5], 48.4 µM; in experiment [6], 95.2 µM. Also, the concentration for total growth inhibition (TGI) in experiment [7] was 30.1 µM; in [8] it was greater than 100 µM; in experiment [9], greater than 100 µM; in [10], 31.5 µM.

Regarding `CN1CCN(C(=O)c2ccc(NC(=O)Nc3ccc(-c4nc(N5CCOCC5)c5cccn5n4)cc3)cc2)CC1`, the GI50 in experiment [1] is 8.06 µM; in experiment [2], 0.279 µM; in experiment [3], 0.102 µM; in experiment [4] it was 0.0172 µM; in experiment [5] it was 0.0357 µM; in experiment [6], 0.0193 µM. Moreover, the concentration for 50% growth inhibition (GI50) in experiment [7] is 0.0634 µM; in experiment [8] it was 0.0498 µM; in experiment [9] it was 0.0787 µM; in experiment [10], 0.0632 µM. Besides, the TGI is greater than 81.6 µM in experiment [1]; 12.8 µM in experiment [2]; 0.576 µM in experiment [3]; 0.0664 µM in experiment [4]; 16.9 µM in [5]; 0.0759 µM in experiment [6]. Further, the TGI in [7] was determined as 12.1 µM; in experiment [8] it was 12 µM; in experiment [9], 13.7 µM; in experiment [10], 1.11 µM.

In the case of `COc1cc(Cl)c(CC(=O)c2c[nH]c3ccccc23)cc1OC`, the TGI in experiment [1] is greater than 100 µM; in experiment [2] it was greater than 100 µM; in experiment [3], greater than 100 µM; in [4], greater than 59.4 µM; in [6], 15.6 µM; in [7] it was greater than 100 µM. For the same compound, the TGI in experiment [8], in experiment [9] and in [10] was greater than 100 µM each time.

For the compound `O=C1CC(c2cccc(Cl)c2)Oc2ccccc21` (stereo unspecified), the TGI stood at 48.9 µM in experiment [1]; 31.7 µM in [2]; 32.2 µM in experiment [3]; 46.3 µM in [4]; 42.2 µM in experiment [6]; 72.1 µM in experiment [7]. For the same compound, the values for the TGI in [8], in experiment [9] and in experiment [10] were 42.1 µM, 39.5 µM and 39.5 µM, respectively.

For the compound `CCCCCCCCCCCNC=O`, the TGI is 96.6 µM in experiment [1]; greater than 100 µM in experiment [2]; greater than 100 µM in experiment [3]; 86.7 µM in experiment [4]; 85.3 µM in experiment [5]; greater than 100 µM in experiment [6]. In addition, the TGI in experiment [7], in experiment [8], in experiment [9] and in experiment [10] was greater than 100 µM in each case.

Regarding `CCOC(=O)c1c(-c2ccccc2)[n+](=O)c2cc(F)c(F)cc2n1[O-]`, the GI50 is 0.924 µM in experiment [1]; 1.38 µM in experiment [2]; 2.09 µM in [3]; 5.02 µM in experiment [4]; 36.5 µM in experiment [5]; 1.14 µM in experiment [6]. Besides, the GI50 in [7] is 0.494 µM; in experiment [9], 2.01 µM; in experiment [10], 2.01 µM. Also, the TGI is 2.66 µM in [1]; 2.8 µM in experiment [2]; 3.88 µM in experiment [3]; 17 µM in [4]; greater than 100 µM in [5]; 2.73 µM in experiment [6]. Besides, the TGI in [7] came out at 3.57 µM; in experiment [9] it was 9.91 µM; in experiment [10] it was 3.64 µM.

As for `CN(C)CCN1C(=O)c2cccc3c(/C=C/CN4C(=O)c5cccc6cccc(c56)C4=O)ccc(c23)C1=O`, the GI50 was greater than 100 µM in [1]; 28.3 µM in experiment [2]; greater than 100 µM in experiment [3]; 34.1 µM in experiment [4]; greater than 100 µM in experiment [5]; 3.67 µM in experiment [6]. The GI50 in [7] was greater than 100 µM; in experiment [8] it was greater than 100 µM; in experiment [9] it was greater than 100 µM; in experiment [10], 4.5 µM. Further, the TGI is greater than 100 µM in experiment [1]; greater than 100 µM in experiment [2]; greater than 100 µM in [3]; greater than 100 µM in [4]; greater than 100 µM in experiment [5]; 20.1 µM in experiment [6]. The concentration for total growth inhibition (TGI) in experiment [7] was greater than 100 µM; in experiment [8], greater than 100 µM; in experiment [9], greater than 100 µM; in experiment [10] it was 19.5 µM.

For the compound `COC(=O)CC1(O)C=CC(=O)C=C1`, the TGI stood at 32.4 µM in [1]; 9.79 µM in experiment [2]; 7.64 µM in experiment [3]; 15.9 µM in experiment [4]; 4.04 µM in experiment [5]; 22.6 µM in experiment [6]. The TGI came to 27.3 µM in [7], 5.02 µM in [8], 3.46 µM in experiment [9] and 6.89 µM in [10].
